{
  "source": "patent US9078851B2",
  "about": "“Composition for preventing or treating a spinal cord injury” (UNIVERSITY-INDUSTRY COOPERATION GROUP OF KYUNG HEE, priority 2009, dated 2015)",
  "format_in_all_cases": "in vivo, rat",
  "key": {"[1]": {"tested_on": "TNF-α, IL-1β, IL-6, iNOS, IL-10 mRNA at spinal cord injury site", "assay": "RT-PCR analysis of cytokine mRNA in injured spinal cord", "settings": "5 nmol/kg tail vein", "description": "(§1) For the present experiment, male white mice (Sprague-Dawley 240-250 g, 7 weeks, 10 mice) were under general anesthetics by an intraperitoneal injection of Ketamin (80 mg/kg, Yuhan Corporation) and Rompun (7.4 mg/kg, Bayer Korea Corporation). Laminectomy was performed at spine T9-10 level to expose a spinal cord keeping intact dura. And then, rat was put on Spinal cord dropping device (NYU); spine processes at T8 and T11 sites were fixed by using a clamp, respectively; then, a rod (diameter 2 mm, weight 10 g) was dropped from 25 mm height vertical to dorsal part of spinal cord followed by suturing injury site muscle and skin. The rat of Sham-operated control group was performed only laminectomy at same area without damaging spinal cord injury (marked by ‘sham” in figures; hereinafter, the same as above).\n(§2) Substance P (marked by ‘SP’ in figures; hereinafter, the same as above) dissolved in saline of 5 nmol/kg concentration was injected through tail vein at immediately, 24 hours, and 48 hours after a spinal cord injury for experimental groups. At sham control group, same volume of saline (marked by ‘vehicle’ in figures; hereinafter, the same as above) without Substance P was injected at same time points. Operation were performed on an electric heating pad of 37° C., and then rat were transferred to cage after awake from the anesthetic. • (2) Preparation of Tissue\nSubstance P (5 nmol/kg in saline) or saline (the same volume without Substance P) was injected through tail vein at various time points at immediately, 1 d, 2d after operation as (1) of Example 1. At 1 hour, 6 hours, 1 day, 3 days, and 5 days, the experimental group (6 rats/group) and the control (6 rats/group) were sacrificed, respectively. After exposing a spinal cord by laminectomy, spin cord with a length of 1 cm, the injury site between T9-10 as the central, was quickly cut off, and immediately put into liquid nitrogen. Total RNA was extracted by using Trizol reagent (Invitrogen), and the cDNA was synthesized through Reverse transcription process. Then, PCR (Chromagen) was performed using primers of TNF-α IL-1β iNOS. Primer's sequences and PCR conditions were as follows."}, "[2]": {"tested_on": "spinal cord injury site tissue", "assay": "Immunofluorescence staining of CSPG, CD206, GFAP, NF200 after spinal cord injury", "settings": "tail vein injection", "description": "as §1, §2\nThen, perfusion was performed by opening the of heart and pumping 200 ml of a physiological saline and 4% paraformaldehyde (Sigma) through right atrium of heart. Then, a segment of spinal cord with injury site was removed and put in 4% paraformaldehyde at 4° C. for 6 hours. Subsequently, spinal cords were washed with saline, and placed in 30% sucrose (Sigma) solution at 4° C. overnight. Next day, spinal cords were cut in a length of 1.5 cm in which the injured site is localized in epicenter followed by embedding in OCT compound (optimal cutting temperature compound, Sakura). The fixed tissues were cut in a thickness of 10 μm (Longitudinal section) or 20 μm (cross section) with Cryostat (Leica) and attached to slide. Finally, slides were stored at −80° C. • (3) Immunofluorescence Staining\nThe selected sections for immunofluorescence staining were washed with saline for three times, and blocked with 10% horse serum (Jackson ImmunoResearch) for 1 hour at a room temperature. ED1 antibody (1:200, Milipore), a marker for activated microglia/macrophage, was treated and placed at 4° C. overnight. Next day, slides were washed with saline, and treated with a secondary antibody conjugated with Alexa Fluor 488 (1:400, Invitrogen) or cyanine 3 (1:500, Jackson ImmunoResearch) for 1 hour at room temperature. […]"}, "[3]": {"tested_on": "activated microglia/macrophage", "assay": "Immunofluorescence staining of ED1 at spinal cord injury site", "settings": "5 nmol/kg tail vein at immediately, 24 h, 48 h after spinal cord injury; 5 days after operation; vs control, rostal to caudal area", "description": "as §1\nas §2, with “Tissue […]” for “Tissue”"}, "[4]": {"settings": "1 hour after spinal cord injury, vs control"}, "[5]": {"settings": "two weeks after spinal cord injury"}},
  "data": [
    {"substance": "Substance P", "values": [
      {"measurement": "expression of IL-1β mRNA", "setting": "[1]; [4]", "value": "slightly decreased"},
      {"measurement": "expression of IL-6 mRNA", "setting": "[1]; [4]", "value": "slightly decreased"},
      {"measurement": "expression of TNF-α mRNA", "setting": "[1]; [4]", "value": "slightly decreased"},
      {"measurement": "expression of iNOS mRNA", "setting": "[1]; [4]", "value": "slightly decreased"},
      {"measurement": "increase of expression of IL-10 mRNA", "setting": "[1]; 6 hours after spinal cord injury, vs control", "value": "at least 17 times"},
      {"measurement": "expression of iNOS", "setting": "[1]; one day after spinal cord injury", "value": "surely decreased"},
      {"measurement": "expressions of inflammatory cytokines (TNF-α, IL-1β, IL-6, iNOS mRNAs)", "setting": "[1]; other times than 1 hour, between two groups", "value": "do not have a difference"},
      {"measurement": "expression of IL-10 mRNA", "setting": "[1]; up to 3 day after spinal cord injury, vs control", "value": "persist increasing level"},
      {"measurement": "GFAP-positive cells distribution", "setting": "[2]; after spinal cord injury", "value": "excluded from CD206-positive spinal cord injury site"},
      {"measurement": "CD206 and ED1 double-positive cells", "setting": "[2]; [5]", "value": "gathered around an injury site"},
      {"measurement": "CSPG-positive signal around an injury site", "setting": "[2]; [5]", "value": "significantly decreased"},
      {"measurement": "neurofilament protein", "setting": "[2]; vs control, exposed to CD206-positive cell field", "value": "well preserved"},
      {"measurement": "activated microglia/macrophage expressing ED1 antigen", "setting": "[3]", "value": "significantly decreased"}
    ]}
  ]
}
